Patent US20240148821A1, “PHARMACEUTICAL USE OF CYCLIC PEPTIDE COMPOUND” (CHUGAI SEIYAKU KABUSHIKI KAISHA, priority 2021, published 2024)
pIC50: −log10 of the molar value. Bridge positions count the residues as written; N and C are the ends. Square brackets hold non-standard residues; d marks the D form. Peptide text beside a SMILES is read from it. * marks the point of attachment. hPhe(3-Cl-4-CF3) = N[C@@H](CCc1ccc(C(F)(F)F)c(Cl)c1)C(=O)O; hPhe(4-CF3) = N[C@@H](CCc1ccc(C(F)(F)F)cc1)C(=O)O; NMePhe(4-Cl) = CN[C@@H](Cc1ccc(Cl)cc1)C(=O)O; NMePhe(2-CN) = CN[C@@H](Cc1ccccc1C#N)C(=O)O; NMePhe(4-Me) = CN[C@@H](Cc1ccc(C)cc1)C(=O)O; NMeGly(cPent) = CN[C@H](C(=O)O)C1CCCC1; Phe(3-I) = N[C@@H](Cc1cccc(I)c1)C(=O)O; NMeCha = CN[C@@H](CC1CCCCC1)C(=O)O; NMeChg = CN[C@H](C(=O)O)C1CCCCC1; NMeF = CN[C@@H](Cc1ccccc1)C(=O)O; NMeI = CC[C@H](C)[C@H](NC)C(=O)O; NMeD = CN[C@@H](CC(=O)O)C(=O)O; NMeL = CN[C@@H](CC(C)C)C(=O)O; NMeV = CN[C@H](C(=O)O)C(C)C; d(β3hA) = C[C@@H](N)CC(=O)O; NMeA = CN[C@@H](C)C(=O)O; Nle = CCCC[C@H](N)C(=O)O; Piperidide = C1CCN(*)CC1; Ac5c = NC1(C(=O)O)CCCC1; Aze = O=C(O)[C@@H]1CCN1; Sar = CNCC(=O)O

These compounds were tested on Human pancreatic cancer cell line AsPC-1 (G12D mutation Kras) (assay: AsPC-1 cell growth inhibition (AsPC-1 CGI)). Settings: read-out: AsPC-1 cell growth inhibition, 50% growth inhibitory concentration (IC50 value); 96 hours, CellTiter-Glo, values classified in ranges.
Assay type: cell-based
Protocol: Test compounds were serially dilated with dimethyl sulfoxide, and 200 nL was then dispensed to a U-bottom 96-well plate using Labcyte Echo. […] The cell suspension was dispensed to a. plate containing a test compound at 100 μL per well and incubated at 37° C. in a 5% carbon dioxide gas incubator. 96 hours later, 80 μL of CellTiter-Glo (Promega) was added to each well and fluorescence was measured.
With `CC[C@H](C)[C@@H]1NC(=O)[C@H](CC(C)C)N(C)C(=O)C[C@@H](C(=O)N(C)C)N(C)C(=O)[C@H](C2CCCC2)N(C)C(=O)C2(CCCC2)NC(=O)[C@H](Cc2ccc(C)cc2)N(C)C(=O)[C@H](CCc2ccc(C(F)(F)F)c(Cl)c2)NC(=O)CN(C)C(=O)[C@H](CC2CCCCC2)N(C)C(=O)[C@@H]2CCN2C(=O)[C@H](C)N(C)C1=O` [Compound 908] ([NMeL]I[NMeA][Aze][NMeCha][Sar][hPhe(3-Cl-4-CF3)][NMePhe(4-Me)][Ac5c][NMeGly(cPent)][NMeD]-NMe2; lactam N-11) the pIC50 was under 6.30.
`CC[C@H](C)[C@@H]1NC(=O)[C@H](C)N(C)C(=O)C[C@@H](C)NC(=O)[C@H](C(C)C)N(C)C(=O)[C@H](Cc2ccccc2)N(C)C(=O)[C@H](CC(C)C)N(C)C(=O)[C@H](CCc2ccc(C(F)(F)F)cc2)NC(=O)CN(C)C(=O)[C@H](Cc2ccc(Cl)cc2)N(C)C(=O)[C@@H]2CCN2C(=O)CN(C)C1=O` [Compound 913] (cyclo([Aze][NMePhe(4-Cl)][Sar][hPhe(4-CF3)][NMeL][NMeF][NMeV][d(β3hA)][NMeA]I[Sar])) gave a pIC50 of under 6.30.
Work on `CC[C@H](C)[C@@H]1NC(=O)[C@H](CC(C)C)N(C)C(=O)C[C@@H](C(=O)N(C)C)N(C)C(=O)[C@H]([C@@H](C)CC)N(C)C(=O)[C@H](C(C)C)NC(=O)[C@@H](C)NC(=O)[C@H](CCc2ccc(C(F)(F)F)c(Cl)c2)NC(=O)CN(C)C(=O)[C@H](Cc2ccc(C)cc2)N(C)C(=O)[C@@H]2CCN2C(=O)[C@H](C)N(C)C1=O` [Compound 915] ([NMeL]I[NMeA][Aze][NMePhe(4-Me)][Sar][hPhe(3-Cl-4-CF3)][dA]V[NMeI][NMeD]-NMe2; lactam N-11) yielded a pIC50 of under 6.30.
`CC[C@H](C)[C@@H]1NC(=O)[C@H](CC(C)C)N(C)C(=O)C[C@@H](C(=O)N2CCCCC2)N(C)C(=O)[C@H](C2CCCCC2)N(C)C(=O)[C@@H](C)NC(=O)[C@@H]2CCCN2C(=O)[C@H](CCc2ccc(C(F)(F)F)c(Cl)c2)NC(=O)CN(C)C(=O)[C@H](CC2CCCCC2)N(C)C(=O)CN(C)C(=O)CN(C)C1=O` [Compound 917] ([NMeL]I[Sar][Sar][NMeCha][Sar][hPhe(3-Cl-4-CF3)]P[dA][NMeChg][NMeD]-Piperidide; lactam N-11) showed a pIC50 of under 6.30.
In the case of `CC[C@H](C)[C@@H]1NC(=O)[C@H](CC(C)C)N(C)C(=O)C[C@@H](C)NC(=O)[C@H](C2CCCC2)N(C)C(=O)[C@H](C(C)C)NC(=O)[C@@H]2CCCN2C(=O)[C@H](CCc2ccc(C(F)(F)F)c(Cl)c2)NC(=O)CN(C)C(=O)[C@H](Cc2ccc(C)cc2)N(C)C(=O)[C@@H]2CCN2C(=O)[C@H](C)N(C)C1=O` [Compound 933] (cyclo([Aze][NMePhe(4-Me)][Sar][hPhe(3-Cl-4-CF3)]PV[NMeGly(cPent)][d(β3hA)][NMeL]I[NMeA])), the pIC50 was under 6.30.
For `CCCC[C@@H]1NC(=O)[C@H](Cc2cccc(I)c2)NC(=O)CN(C)C(=O)[C@H](Cc2ccc(Cl)cc2)N(C)C(=O)CN(C)C(=O)CN(C)C(=O)[C@H]([C@@H](C)CC)NC(=O)[C@H](CC(C)C)N(C)C(=O)C[C@@H](C(=O)N2CCCCC2)N(C)C(=O)[C@H](CC(C)C)NC(=O)[C@H](Cc2ccc(Cl)cc2)N(C)C1=O` [Compound 934] ([NMeL]I[Sar][Sar][NMePhe(4-Cl)][Sar][Phe(3-I)][Nle][NMePhe(4-Cl)]L[NMeD]-Piperidide; lactam N-11), the pIC50 was under 6.30.
`CC[C@H](C)[C@@H]1NC(=O)[C@H](CC(C)C)N(C)C(=O)C[C@@H](C(=O)N2CCCCC2)N(C)C(=O)[C@H](C(C)C)N(C)C(=O)C2(CCCC2)NC(=O)[C@@H]2CCCN2C(=O)[C@H](CCc2ccc(C(F)(F)F)c(Cl)c2)NC(=O)CN(C)C(=O)[C@H](Cc2ccccc2C#N)N(C)C(=O)CN(C)C(=O)CN(C)C1=O` [Compound 935] ([NMeL]I[Sar][Sar][NMePhe(2-CN)][Sar][hPhe(3-Cl-4-CF3)]P[Ac5c][NMeV][NMeD]-Piperidide; lactam N-11) gave a pIC50 of under 6.30.
